System: serum IgG antibody (protective mouse sera, patient sera D20, D24, H10)
Assay: Epitope mapping ELISA of PIN-bound PrtR27 overlapping peptides with human and mouse antisera
Assay type: binding
Details: PIN-bound overlapping 13 mer peptides, antisera diluted 1:1000, O.D. 450 nm
Excerpt: FIG. 6: Serum IgG antibody responses assessed by ELISA to Porphyromonas gingivalis PrtR-27 overlapping peptides (SEQ ID NOs:13-24, 33, and 25-32, respectively, from origin). Twenty one PIN-bound peptides were probed with normal mouse sera (▪), protective mouse sera (□), normal human serum (▪), patient D24 sera (▪), patient H10 sera (▪) and patient D20 sera (▪). ELISAs were developed as per Example 1.
Twenty overlapping 13 mer peptides (overlay by 6 and offset by 7 residues) corresponding to the N-terminal 148 residues of the PrtR27 were synthesised by Chiron Technologies (Melbourne, Australia) using the multipin peptide synthesis system. The sequence of the N-terminal 148 residues of the PrtR27 adhesin is as follows: • […] (SEQ ID NO: 12). The overlapping peptides synthesised were: • […] (SEQ ID NO:13) • […] (SEQ ID NO:14) • […] (SEQ ID NO:15) • […] (SEQ ID NO:16) • […] (SEQ ID NO:17) • […] (SEQ ID NO:18) • […] (SEQ ID NO:19) • […] (SEQ ID NO:20) • […] (SEQ ID NO:21) • […] (SEQ ID NO:22) • […] (SEQ ID NO:23) • […] (SEQ ID NO:24) • […] (SEQ ID NO:25) • […] (SEQ ID NO:26) • […] (SEQ ID NO:27) • […] (SEQ ID NO:28) • […] (SEQ ID NO:29) • […] (SEQ ID NO:30) • […] (SEQ ID NO:31) • […] (SEQ ID NO:32).
Epitope mapping of the pin-bound peptides was carried out by ELISA as per Chiron Technologies instructions using the human and mouse proteinase antisera at a dilution of 1:1000 in 1% w/v non-fat skim milk powder in 0.1M phosphate buffered saline, pH 7.4, containing 0.1% v/v Tween 20. The bound antibody was detected by incubating the peptide-PINS with 0.4 mM 3,3′,5,5′-tetramethylbenzidine in 0.1M sodium acetate/citric acid buffer containing 0.004% v/v H2O2. Colour development was stopped by the addition of 2M H2SO4. Optical density (O.D.) was measured at 450 nm using a BioRad microplate reader model 450.

| Sequence | Antibody binding of PrtR27 regions in ELISA (FIG. 6) |
| --- | --- |
| FLLDADHNTFGSVIPATGPLFTGTASS (listed as Porphyromonas gingivalis) [EP1] | bind antibody |
| LYSANFESLIPANADPVVTTQNIIVTG (listed as Porphyromonas gingivalis) [EP2] | bind antibody |
| RYDDFTFEAGKKYTFTMRRAGMGDGTD (listed as Porphyromonas gingivalis) [EP5] | bind antibody |
| TNPEPASGKMWIAGDGGNQP (listed as Porphyromonas gingivalis) [EP4] | bind antibody |
